According to ChEMBL document CHEMBL5584309, “Discovery of Novel Mcl-1 Inhibitors with a 3-Substituted-1H-indole-1-yl Moiety Binding to the P1-P3 Pockets to Induce Apoptosis in Acute Myeloid Leukemia Cells” (J Med Chem, 2024):
Activity calls are given as the source filed them. No cut-off for these calls is given here.

Key:
[1] = biological target: Apoptosis regulator Bcl-2 (Homo sapiens, UniProt P10415); assay: Binding affinity to Bcl-2 (unknown origin) pre-incubated for 30 mins followed by addition FAM-peptide further incubated for 20 mins by fluorescence polarization-based binding assay
Bcl-2-like protein 1 = Bcl-2-like protein 1 (Homo sapiens, UniProt Q07817); assay: Binding affinity to Bcl-xL (unknown origin) pre-incubated for 30 mins followed by addition FAM-peptide further incubated for 20 mins by fluorescence polarization-based binding assay
Bcl-2-related protein A1 = biological target: T1, Bcl-2-related protein A1 (Homo sapiens, UniProt Q16548); assay: Binding affinity to Bfl-1 (unknown origin) pre-incubated for 30 mins followed by addition FAM-peptide further incubated for 20 mins by fluorescence polarization-based binding assay
T1 sequence (Q16548 whole entry): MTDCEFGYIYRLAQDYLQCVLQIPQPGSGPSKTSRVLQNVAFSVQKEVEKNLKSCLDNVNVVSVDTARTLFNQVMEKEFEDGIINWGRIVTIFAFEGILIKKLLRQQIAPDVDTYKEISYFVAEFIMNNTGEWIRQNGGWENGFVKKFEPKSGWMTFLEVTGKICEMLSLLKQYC

THP-1 [2] = assay: Antiproliferative activity against human THP-1 cells assessed as growth inhibition measured after 72 hrs by CCK-8 assay; type: functional, cell-based; conditions: THP-1, 72 h
MOLM-13 = assay: Antiproliferative activity against human MOLM-13 cells assessed as growth inhibition measured after 72 hrs by CCK-8 assay; type: functional, cell-based; conditions: MOLM-13, 72 h
U-937 = assay: Antiproliferative activity against human U-937 cells assessed as growth inhibition measured after 72 hrs by CCK-8 assay; type: functional, cell-based; conditions: U-937, 72 h
HL-60 [3] = assay: Induction of apoptosis in human HL-60 cells assessed as cleaved PARP at 10 to 20 uM measured after 24 hrs by Western blot analysis; type: functional, cell-based; conditions: dose 10-20 µM
HL-60 [4] = assay: Induction of apoptosis in human HL-60 cells assessed as early apoptotic cells at 2.5 uM measured after 24 hrs by Annexin V-FITC/propidium iodide double staining based assay (reference value: 3.37%); type: functional
HL-60 [5] = assay: Induction of apoptosis in human HL-60 cells assessed as late apoptotic cells at 2.5 uM measured after 24 hrs by Annexin V-FITC/propidium iodide double staining based assay (reference value: 3.78%); type: functional
HL-60 [6] = assay: Induction of apoptosis in human HL-60 cells assessed as necrotic cells at 2.5 uM measured after 24 hrs by Annexin V-FITC/propidium iodide double staining based assay (reference value: 0.18%); type: functional
HL-60 [7] = assay: Induction of apoptosis in human HL-60 cells assessed as viable cells at 5 uM measured after 24 hrs by Annexin V-FITC/propidium iodide double staining based assay (reference value: 92.68%); type: functional; conditions: read-out: Activity
HL-60 [8] = assay: Induction of apoptosis in human HL-60 cells assessed as early apoptotic cells at 5 uM measured after 24 hrs by Annexin V-FITC/propidium iodide double staining based assay (reference value: 3.37%); type: functional
HL-60 [9] = assay: Induction of apoptosis in human HL-60 cells assessed as late apoptotic cells at 5 uM measured after 24 hrs by Annexin V-FITC/propidium iodide double staining based assay (reference value: 3.78%); type: functional
HL-60 [10] = assay: Induction of apoptosis in human HL-60 cells assessed as late apoptotic cells at 10 uM measured after 24 hrs by Annexin V-FITC/propidium iodide double staining based assay (reference value: 3.78%); type: functional
HL-60 [11] = assay: Induction of apoptosis in human HL-60 cells assessed as necrotic cells at 10 uM measured after 24 hrs by Annexin V-FITC/propidium iodide double staining based assay (reference value: 0.18%); type: functional
THP-1 [12] = assay: Induction of apoptosis in human THP-1 cells assessed as viable cells at 5 uM measured after 24 hrs by Annexin V-FITC/propidium iodide double staining based assay (reference value: 93.02%); type: functional; conditions: read-out: Activity
THP-1 [13] = assay: Induction of apoptosis in human THP-1 cells assessed as early apoptotic cells at 5 uM measured after 24 hrs by Annexin V-FITC/propidium iodide double staining based assay (reference value: 4.04%); type: functional
THP-1 [14] = assay: Induction of apoptosis in human THP-1 cells assessed as late apoptotic cells at 5 uM measured after 24 hrs by Annexin V-FITC/propidium iodide double staining based assay (reference value: 2.81%); type: functional
THP-1 [15] = assay: Induction of apoptosis in human THP-1 cells assessed as necrotic cells at 5 uM measured after 24 hrs by Annexin V-FITC/propidium iodide double staining based assay (reference value: 0.13%); type: functional
THP-1 [16] = assay: Induction of apoptosis in human THP-1 cells assessed as viable cells at 10 uM measured after 24 hrs by Annexin V-FITC/propidium iodide double staining based assay (reference value: 93.02%); type: functional; conditions: read-out: Activity
THP-1 [17] = assay: Induction of apoptosis in human THP-1 cells assessed as early apoptotic cells at 10 uM measured after 24 hrs by Annexin V-FITC/propidium iodide double staining based assay (reference value: 4.04%); type: functional
THP-1 [18] = assay: Induction of apoptosis in human THP-1 cells assessed as late apoptotic cells at 10 uM measured after 24 hrs by Annexin V-FITC/propidium iodide double staining based assay (reference value: 2.81%); type: functional
THP-1 [19] = assay: Induction of apoptosis in human THP-1 cells assessed as viable cells at 20 uM measured after 24 hrs by Annexin V-FITC/propidium iodide double staining based assay (reference value: 93.02%); type: functional; conditions: read-out: Activity
THP-1 [20] = assay: Induction of apoptosis in human THP-1 cells assessed as early apoptotic cells at 20 uM measured after 24 hrs by Annexin V-FITC/propidium iodide double staining based assay (reference value: 4.04%); type: functional
THP-1 [21] = assay: Induction of apoptosis in human THP-1 cells assessed as late apoptotic cells at 20 uM measured after 24 hrs by Annexin V-FITC/propidium iodide double staining based assay (reference value: 2.81%); type: functional
THP-1 [22] = assay: Induction of apoptosis in human THP-1 cells assessed as necrotic cells at 20 uM measured after 24 hrs by Annexin V-FITC/propidium iodide double staining based assay (reference value: 0.13%); type: functional
[23] = Metabolic stability in rat plasma assessed as compound remaining measured immediately after addition of compound by LC-MS/MS analysis; type: ADME, cell-free; conditions: read-out: Stability
[24] = Metabolic stability in rat plasma assessed as compound remaining measured after 10 mins by LC-MS/MS analysis; type: ADME, cell-free; conditions: read-out: Stability
[25] = Metabolic stability in rat plasma assessed as compound remaining measured after 60 mins by LC-MS/MS analysis; type: ADME, cell-free; conditions: read-out: Stability
[26] = Metabolic stability in rat plasma assessed as compound remaining measured after 120 mins by LC-MS/MS analysis; type: ADME, cell-free; conditions: read-out: Stability
[27] = Metabolic stability in rat liver microsomes assessed as compound remaining measured after 5 mins by LC-MS/MS analysis; type: ADME, Microsome
[28] = Metabolic stability in rat liver microsomes assessed as half life by LC-MS/MS analysis; type: ADME, Microsome
[29] = Metabolic stability in rat liver microsomes assessed as intrinsic clearance by LC-MS/MS analysis; type: ADME, Microsome; conditions: read-out: CLH
THP-1 [30] = assay: In vivo antitumor activity against human THP-1 cells xenografted in female NOD SCID mouse assessed as tumor growth inhibition at 80 mg/kg, ip once daily after 10 days of tumor inoculation treated for 14 days relative to control; type: functional; conditions: THP-1, 336 h, time 14 day, read-out: TGI

Sequence of Apoptosis regulator Bcl-2 (P10415 whole entry): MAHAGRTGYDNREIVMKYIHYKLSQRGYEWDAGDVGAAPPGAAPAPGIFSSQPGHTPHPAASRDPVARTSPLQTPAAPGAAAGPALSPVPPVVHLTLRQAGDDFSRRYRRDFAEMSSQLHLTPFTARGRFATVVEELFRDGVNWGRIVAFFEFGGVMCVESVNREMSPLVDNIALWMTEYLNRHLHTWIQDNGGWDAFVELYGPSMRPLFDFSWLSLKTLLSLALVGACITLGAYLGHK
Sequence of Bcl-2-like protein 1 (Q07817 whole entry): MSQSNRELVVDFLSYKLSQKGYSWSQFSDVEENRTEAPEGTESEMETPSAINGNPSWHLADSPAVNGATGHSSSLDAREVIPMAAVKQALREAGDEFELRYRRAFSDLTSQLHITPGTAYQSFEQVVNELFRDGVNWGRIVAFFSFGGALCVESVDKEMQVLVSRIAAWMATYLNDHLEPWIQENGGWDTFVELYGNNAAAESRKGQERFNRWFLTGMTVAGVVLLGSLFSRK

SMILES	IC50 [1]	IC50 (Bcl-2-like protein 1)	IC50 (Bcl-2-related protein A1)	IC50 (THP-1 [2])	IC50 (MOLM-13)	IC50 (U-937)	Activity (HL-60 [3])	Activity (HL-60 [4])	Activity (HL-60 [5])	Activity (HL-60 [6])	viability at 5 µM (HL-60 [7])	Activity (HL-60 [8])	Activity (HL-60 [9])	Activity (HL-60 [10])	Activity (HL-60 [11])	viability at 5 µM (THP-1 [12])	Activity (THP-1 [13])	Activity (THP-1 [14])	Activity (THP-1 [15])	viability at 10 µM (THP-1 [16])	further results
Cc1cc(OCCCc2c(C(=O)O)n(CCN3CCOCC3)c3c(-c4ccccc4Cn4cc(CCN(CCN5CCOCC5)S(=O)(=O)c5ccc(F)cc5)c5ccccc54)cccc23)cc(C)c1Cl	> 100 µM	> 100 µM	> 10 µM	8.83 µM	8.52 µM	8.33 µM	Active	3.06%	3.95%	0.16%	81.9%	4.06%	13.47%	46.1%	0.2%	93.2%	4.1%	2.59%	0.15%	91.2%	Activity (THP-1 [17]): 4.14%; Activity (THP-1 [18]): 4.12%; viability at 20 µM (THP-1 [19]): 68.6%; Activity (THP-1 [20]): 24.61%; Activity (THP-1 [21]): 6.3%; Activity (THP-1 [22]): 0.52%; remaining at 0 min [23]: 100%; remaining at 10 min [24]: 101%; remaining at 1 h [25]: 94.8%; remaining at 2 h [26]: 82.1%; Stability ([27]; microsomes, 5 min): 69.3%; t1/2 ([28]; microsomes): 45.3 min; microsomal CLint [29]: 30.6 µL/min/mg; inhibition in vivo at 80 mg/kg (THP-1 [30]): 57.4%
Cc1nn(C)c(COc2ccc(N3CCN(S(=O)(=O)N(C)C)CC3)cc2)c1-c1cccc2c(CCCOc3cccc4ccccc34)c(C(=O)O)n(CCN3CCOCC3)c12	> 100 µM	> 100 µM	> 10 µM	5.65 µM	8.15 µM	4.71 µM	Active	0.97%	2.14%	0.71%	92.6%	1.28%	4.82%	50.33%	4.86%	94%	3.36%	2.54%	0.15%	92.9%	Activity (THP-1 [17]): 4.2%; Activity (THP-1 [18]): 2.8%; viability at 20 µM (THP-1 [19]): 41.9%; Activity (THP-1 [20]): 33.09%; Activity (THP-1 [21]): 24.35%; Activity (THP-1 [22]): 0.62%; remaining at 0 min [23]: 100%; remaining at 10 min [24]: 93.3%; remaining at 1 h [25]: 106%; remaining at 2 h [26]: 114%; remaining at 5 min ([27]; liver microsomes, read-out: Stability): 77.1%; half-life ([28]; liver microsomes): 39.7 min; microsomal CLint [29]: 34.9 µL/min/mg; inhibition in vivo at 80 mg/kg (THP-1 [30]): 58.7%
